# Where a name gives a salt, the structure may show the parent alone.
# Key:
# C57BL/6J mice = experiment: In vivo therapeutic model; T-maze spontaneous alternation; conditions: 12-month old male C57BL6J mice; 10 mg/kg/day p.o. for 21 days and on test day at t=-30 min
# Method: FIG. 1 Percentage of alternation of young and old C57BL/6J male mice in the T-maze with either vehicle (control groups) or compound 34b (10 mg/kg; p.o.)
# In Vivo Therapeutic Model; T-Maze
# Age-related memory deficits occur in humans and rodents. Spontaneous alternation is the innate tendency of rodents to alternate free choices in a T-maze over a series of successive runs. This sequential procedure relies on working memory and is sensitive to various pharmacological manipulations affecting memory processes (Aging and the physiology of spatial memory. Barnes C. A. Neurobiol. Aging 1988:563-8; Dember W N, Fowler H. Spontaneous alternation behavior. Psychol. Bull. 1958, 55(6):412-427; Gerlai R. A new continuous alternation task in T-maze detects hippocampal dysfunction in mice. A strain comparison and lesion study. Behav Brain Res 1998 95(1):91-101).
# For this study, male C57BL/6J mice of 2 months or 12 months old were used in the spontaneous alternation task in the T-maze. In short, mice were subjected to 1 session containing 15 trials, consisting of 1 “forced-choice” trial, followed by 14 “free-choice” trials. The animal was considered as entering one of the arms of the maze when all four paws are placed within this arm. […] The percentage of alternation over the 14 free-choice trials was determined for each mouse and was used as an index of working memory performance. […]
# human S1P1 = target: T1, human S1P1 (Homo sapiens, UniProt P21453); experiment: In vitro functional activity (agonism), CHO-K1-human S1P1 cAMP assay; type: cell-based; conditions: read-out: S1P1 pEC50 (converted)
# T1 construct: host or cells: CHO-K1
# Method: In Vitro Functional Activity (Agonism) on Human S1P1 Receptors
# The CHO-K1-Human S1P1-c-AMP assay was performed at Euroscreenfast, Brussels (Euroscreen, Human S1P1 coupling Gi/o), (Edg1) receptor, catalog no: FAST-0197C, December 2009).
# Recombinant CHO-K1 cells expressing human S1P1, grown to mid-log Phase in culture media without antibiotics, detached, centrifuged and re-suspended. For agonist testing cells are mixed with compound and Forskolin and incubated at room temperature. Cells are lyses and cAMP concentration are estimated, according to the manufacturer specification, With the HTRF kit from CIS-BIO International (cat no 62AM2PEB).
# Agonistic effects of compounds are expressed as a percentage of the activity of the reference compound at its EC100 concentration, EC50) is calculated and results are reported as pEC50. Compounds were tested at a 10 points half log concentration range duplicated in 1 experiment.
# human S1P5 receptor = target: T2, human S1P5 receptor (Homo sapiens, UniProt Q9H228); experiment: In vitro functional activity (agonism), CHO-human-S1P5-Aequorin assay; type: cell-based; conditions: read-out: S1P5 pEC50 (converted)
# T2 construct: host or cells: CHO (AequoScreen recombinant cell line, co-expressing mitochondrially targeted apo-aequorin)
# Excerpt: In Vitro Functional Activity (Agonism) on Human S1P5 Receptors
# (§1) The CHO-human-S1P5-Aeqorin assay was bought from Euroscreen, Brussels (Euroscreen, Technical dossier, Human Lysophospholid S1P5 (Edg8) receptor, DNA clone and CHO AequoScreen™ recombinant cell-line, catalog no: ES-593-A, September 2006). Human-S1P5-Aequorin cells express mitochondrial targeted apo-Aequorin. Cells have to be loaded with coelanterazine, in order to reconstitute active Aequorin. After binding of agonists to the human S1P5 receptor the intracellular calcium concentration increases and binding of calcium to the apo-Aequorin/coelenterazine complex leads to an oxidation reaction of coelenterazine, which results in the production of apo-Aequorin, coelenteramide, CO2 and light (λmax 469 nm). This luminescent response is dependent on the agonist concentration. Luminescence is measured using the MicroBeta Jet (Perkin Elmer). Agonistic effects of compounds are expressed as pEC50. Compounds were tested at a 10 points half log concentration range, and 3 independent experiments were performed in single point's measurements.
# human S1P3 receptor = target: T3, human S1P3 receptor (Homo sapiens, UniProt Q99500); experiment: In vitro functional activity (agonism), CHO-human-S1P3-Aequorin assay; type: cell-based; conditions: read-out: S1P3 pEC50 (converted)
# T3 construct: cell line established at Solvay Pharmaceuticals; host or cells: CHO K1 (CHO/Gα16/AEQ/h-S1P3)
# Excerpt: In Vitro Functional Activity (Agonism) on Human S1P3 Receptors
# The CHO-human-S1P3-Aeqorin assay (CHO/Gα16/AEQ/h-S1P3) was established at Solvay Pharmaceuticals. The plasmid DNA coding for the S1P3 receptor (accession number in GenBank NM_005226 was purchased from UMR cDNA resource Centre (Rolla, Mo.). The pcDNA3.1/hS1P3 construct carrying the mitochondrially targeted apo-Aeqorin and Gα16 protein was transfected in CHO K1 cell-line.
# as §1, with “Human-S1P3-Aequorin” for “The CHO-human-S1P5-Aeqorin assay was bought from Euroscreen, Brussels (Euroscreen, Technical dossier, Human Lysophospholid S1P5 (Edg8) receptor, DNA clone and CHO AequoScreen™ recombinant cell-line, catalog no: ES-593-A, September 2006). Human-S1P5-Aequorin”, “S1P3” for “S1P5”
# T1 sequence (P21453 whole entry): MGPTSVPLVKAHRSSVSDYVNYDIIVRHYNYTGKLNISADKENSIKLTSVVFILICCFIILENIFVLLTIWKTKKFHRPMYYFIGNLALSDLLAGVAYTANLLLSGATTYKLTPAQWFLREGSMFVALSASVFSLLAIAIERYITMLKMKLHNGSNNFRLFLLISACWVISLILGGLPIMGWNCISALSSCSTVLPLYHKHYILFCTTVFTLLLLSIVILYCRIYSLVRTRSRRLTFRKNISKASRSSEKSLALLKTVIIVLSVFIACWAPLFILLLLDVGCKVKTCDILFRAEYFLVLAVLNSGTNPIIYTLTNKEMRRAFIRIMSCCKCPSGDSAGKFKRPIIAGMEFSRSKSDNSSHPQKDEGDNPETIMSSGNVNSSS
# T2 sequence (Q9H228 whole entry): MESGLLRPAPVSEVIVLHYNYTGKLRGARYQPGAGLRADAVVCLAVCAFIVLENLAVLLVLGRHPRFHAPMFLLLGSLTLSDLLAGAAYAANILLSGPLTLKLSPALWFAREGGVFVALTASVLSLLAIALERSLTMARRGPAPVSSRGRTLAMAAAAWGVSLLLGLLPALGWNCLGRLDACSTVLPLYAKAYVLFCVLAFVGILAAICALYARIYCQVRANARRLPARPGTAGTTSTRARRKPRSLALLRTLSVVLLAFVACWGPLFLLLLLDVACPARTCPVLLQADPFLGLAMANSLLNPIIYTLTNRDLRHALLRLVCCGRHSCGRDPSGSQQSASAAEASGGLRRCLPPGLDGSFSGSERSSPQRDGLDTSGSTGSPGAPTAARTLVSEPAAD
# T3 sequence (Q99500 whole entry): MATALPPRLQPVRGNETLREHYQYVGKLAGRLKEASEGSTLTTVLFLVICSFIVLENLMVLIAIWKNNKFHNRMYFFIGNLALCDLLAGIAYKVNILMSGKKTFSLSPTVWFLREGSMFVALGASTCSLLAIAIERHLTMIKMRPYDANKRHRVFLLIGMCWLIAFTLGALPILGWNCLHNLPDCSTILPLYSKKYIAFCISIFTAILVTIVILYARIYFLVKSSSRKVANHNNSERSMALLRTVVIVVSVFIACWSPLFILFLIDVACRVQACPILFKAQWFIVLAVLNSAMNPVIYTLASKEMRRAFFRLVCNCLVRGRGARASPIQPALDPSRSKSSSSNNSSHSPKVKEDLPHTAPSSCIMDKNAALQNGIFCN
Compound,reversal of the age-related cognitive decline (percentage of alternation in T-maze) (C57BL/6J mice) [%],EC50 (human S1P1) [µM],EC50 (human S1P5 receptor) [µM],EC50 (human S1P3 receptor) [µM],melting point [°C]
"Cl.O=C(O)CCN1CCOC(c2ccc(OCc3c(Cl)cccc3Cl)cc2)C1 (single isomer, unassigned; (-)) [Compound 34b, (−)-3-{2-[4-(2,6-Dichloro-benzyloxy)-phenyl]-morpholin-4-yl}-propionic acid hydrochloride]",100,> 3.16,0.0316,,
"CCCCCCCCOc1ccc(C2CN(CCC(=O)O)CCO2)cc1 (centres unmarked) [Compound 41, 3-(2-(4-Octyloxy-phenyl)-morpholin-4-yl)-propionic acid hydro-chloride]",,> 3.16,0.251,2.51,
"COc1cc(C2CN(CCC(=O)O)CCO2)ccc1OCc1ccccc1C(F)(F)F.Cl (centres unmarked) [Compound 66, 3-{2-[3-Methoxy-4-(2-trifluoromethyl-benzyloxy)-phenyl]-morpholin-4-yl}-propionic acid hydrochloride]",,,0.631,> 10,170 to 172
"Cc1cc(OCc2c(Cl)cccc2Cl)ccc1C1CN(CCC(=O)O)CCO1 (centres unmarked) [Compound 130, 3-{2-[4-(2,6-Dichloro-benzyloxy)-2-methyl-phenyl]-morpholin-4-yl}-propionic acid trifluoroacetic acid salt]",,> 3.16,0.0794,> 31.6,
"O=C(O)CCN1CCOC(c2ccc(OCc3c(Cl)cccc3C(F)(F)F)cc2)C1 (centres unmarked) [Compound 153, 3-{2-[4-(2-Chloro-6-trifluoromethyl-benzyloxy)-phenyl]-morpholin-4-yl}-propionic acid hydrochloride]",,> 3.16,0.1,> 10,
"Cl.O=C(O)CCN1CCOC(c2ccc(OCc3c(Cl)cccc3Cl)cc2F)C1 (centres unmarked) [Compound 179, 3-{2-[4-(2,6-Dichloro-benzyloxy)-2-fluoro-phenyl]-morpholin-4-yl}-propionic acid hydrochloride]",,> 3.16,0.126,> 10,174.5 to 178
"CCCCCCCCOc1ccc(C2CN(CCC(=O)O)CCO2)c(C(F)(F)F)c1.Cl (centres unmarked) [Compound 189, 3-[2-(4-Octyloxy-2-trifluoromethyl-phenyl)-morpholin-4-yl]-propionic acid hydrochloride]",,1.58,0.158,1.58,178.5 to 180.5
"Cc1cccc2c1C(Oc1ccc(C3CN(CCC(=O)O)CCO3)cc1)CC2 (centres unmarked) [Compound 220, 3-{2-[4-(7-Methyl-indan-1-yloxy)-phenyl]-morpholin-4-yl}-propionic acid]",,,0.158,0.251,134 to 139
"Clc1cccc(Cl)c1COc1ccc(C2CN(CCc3nn[nH]n3)CCO2)cc1 (centres unmarked) [Compound 228, 2-[4-(2,6-Dichloro-benzyloxy)-phenyl]-4-[2-(2H-tetrazol-5-yl)-ethyl]-morpholine hydrochloride]",,> 3.16,0.158,> 10,
"CCCCCCCCOc1cccc(C2CN(CCC(=O)O)CCO2)c1.Cl (centres unmarked) [Compound 231, 3-[2-(3-Octyloxy-phenyl)-morpholin-4-yl]-propionic acid hydrochloride]",,,0.251,> 10,218 to 220

# From patent US9273017B2, “(Thio)morpholine derivatives as S1P modulators” (ABBVIE BAHAMAS LIMITED, priority 2009, dated 2016)
